Data as given in patent publication US20250170112A1, “ADENOSINE LIGANDS FOR THE TREATMENT OF NEUROLOGICAL DISORDERS” (Lucy Therapeutics, Inc., priority 2022, published 2025).

Columns and labels:
human A2B = molecular target: T1, human A2B (Homo sapiens, UniProt P29275); assay: cAMP HTRF assay for Gs coupled receptor, agonist test; format: cell-based; details: agonist activity; HEK293 cells expressing recombinant human A2B; read-out: A2BAR EC50
T1 construct: expressed in transfected cells; host or cells: HEK293
T1 sequence (P29275 1-332): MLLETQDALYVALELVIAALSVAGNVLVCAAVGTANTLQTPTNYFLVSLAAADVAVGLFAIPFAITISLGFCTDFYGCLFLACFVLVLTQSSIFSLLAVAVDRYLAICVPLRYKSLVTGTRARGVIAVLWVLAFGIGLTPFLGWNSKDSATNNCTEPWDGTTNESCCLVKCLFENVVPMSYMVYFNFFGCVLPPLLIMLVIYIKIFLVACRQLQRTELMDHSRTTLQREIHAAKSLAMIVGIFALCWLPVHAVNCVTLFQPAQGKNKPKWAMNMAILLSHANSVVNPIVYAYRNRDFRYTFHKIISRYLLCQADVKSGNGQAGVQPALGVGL
Procedure: (§1) SPA ^35S-GTPγS experiments were conducted with Epics Therapeutics membrane preparations. cAMP HTRF assays were conducted with recombinant cell lines.
Dose response curves are performed in parallel with the reference compounds.
For agonist test (96 well): 12 μL of cells are mixed with 12 μL of the test compound at increasing concentrations and then incubated 30 min at room temperature. After addition of the lysis buffer containing cAMP-d2 and anti-cAMP cryptate detection reagents, plates are incubated 1 hour incubation at room temperature, and fluorescence ratios are measured according to the manufacturer specification, with the HTRF kit.

[1] = molecular target: T2, human Adenosine A1 receptor (Homo sapiens, UniProt P30542); assay: GTPγS scintillation proximity assay, agonist testing; format: biochemical; details: agonist activity; membrane extracts of CHO-K1 cells expressing recombinant human A1; read-out: A1AR EC50
T2 construct: host or cells: CHO-K1
T2 sequence (P30542 1-326): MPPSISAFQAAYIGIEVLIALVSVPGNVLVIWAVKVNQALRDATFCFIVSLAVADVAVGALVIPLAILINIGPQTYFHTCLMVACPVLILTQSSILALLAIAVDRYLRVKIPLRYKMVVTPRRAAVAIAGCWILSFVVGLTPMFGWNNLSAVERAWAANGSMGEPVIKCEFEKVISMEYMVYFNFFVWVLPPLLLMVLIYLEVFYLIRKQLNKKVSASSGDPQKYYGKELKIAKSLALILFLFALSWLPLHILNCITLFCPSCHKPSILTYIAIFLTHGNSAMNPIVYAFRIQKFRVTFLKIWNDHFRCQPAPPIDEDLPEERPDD
Procedure: as §1
• Assay buffer: 20 mM HEPES pH 7.4; 100 mM NaCl, 10 μg/mL saponin, MgCl2 at optimized concentration for the specific receptor. • Membranes: membrane extracts prepared from CHO-K1 cells expressing recombinant human Adenosine A1 receptor, thawed on ice, diluted in assay buffer and kept on ice. • GDP: diluted in assay buffer at the optimized concentration for the specific receptor Beads: PVT-WGA (Perkin Elmer, RPNQ001), diluted in assay buffer at 50 mg/mL (0.5 mg/10 μL) • GTPγ^35S: (Perkin Elmer, NEG030X), diluted in assay buffer for a final 0.1 nM assay concentration
Protocol for agonist testing: membranes are mixed with GDP (volume:volume). In parallel, GTPγ[^35S] is mixed with the beads (volume:volume) just before starting the reaction. The following reagents are successively added in the wells of an Optiplate (Perkin Elmer): 50 μL of test or reference ligand, 25 μL of the membranes:GDP mix, and 25 μL of the GTPγ[^35S]:beads mix. The plates are covered with a top seal, mixed on an orbital shaker for 2 min, and then incubated for 1 hour at room temperature. Then the plates are centrifuged for 10 min at 2000 rpm, incubated at room temperature and counted for 30 sec/well with a PerkinElmer TopCount™ reader. • Conditions for the GTPγS scintillation proximity assay are shown in Table 14.

Compound	EC50 (human A2B) [nM]	EC50 [1] [nM]
COCCOc1ccc(-c2c(C#N)c(SCCO)nc(N3CCCC3)c2C#N)cc1 [Compound 117]	> 10000	997
COCCOc1ccc(-c2c(C#N)c(SCc3cccnc3)nc(C3CC3)c2C#N)cc1 [Compound 46]	> 10000	110
N#Cc1c(SCc2cccnc2)nc(N2CCCC2)c(C#N)c1-c1ccc(OCCOC(F)F)cc1 [Compound 257]	> 10000	> 10000
N#Cc1c(N)nc(SCc2cccnc2)c(C#N)c1-c1ccc(OCCOC(F)F)cc1 [Compound 40]	> 10000	21.6
N#Cc1c(N)nc(SCc2cccc3[nH]ccc23)c(C#N)c1-c1ccc(OC2CCOC2)cc1 (stereo not drawn) [Compound 221]	> 10000	> 10000
COCCOc1ccc(-c2c(C#N)c(SCc3cnccn3)nc(N3CC(F)C3)c2C#N)cc1 [Compound 252]	> 10000	> 10000
COCCOc1ccc(-c2c(C#N)c(N)nc(SCc3ccc4cc[nH]c4c3)c2C#N)cc1 [Compound 44]	> 10000	34.3
N#Cc1c(N)nc(SCc2ccnnc2)c(C#N)c1-c1ccc(OCCO)cc1 [Compound 162]	0.7	11
N#Cc1c(N)nc(SCc2cccnc2)c(C#N)c1-c1ccc(OCC(O)C(F)(F)F)cc1 (stereo not drawn) [Compound 65]	1.9	309
N#Cc1c(N)nc(SCc2ccccc2)c(C#N)c1-c1ccc(OCCO)cc1 [Compound 150]	4.2	12
COCCOc1ccc(-c2c(C#N)c(C)nc(SCCC(F)(F)F)c2C#N)cc1 [Compound 47]	36.1	> 10000
COCCOc1ccc(-c2c(C#N)cnc(SCC3COC3)c2C#N)cc1 [Compound 64]	> 10000	281
CNC(=O)CSc1nc(N2CCCC2)c(C#N)c(-c2ccc(OCCOC)cc2)c1C#N [Compound 79]	45	1790
COCCOc1ccc(-c2c(C#N)c(SCCO)nc(N3CCC3)c2C#N)cc1 [Compound 89]	> 10000	819
Cc1ccc(CSc2nc(N3CCC3)c(C#N)c(-c3ccc(OCCO)cc3)c2C#N)cn1 [Compound 69]	26.3	201
N#Cc1c(SCc2cccnc2)nc(N2CC(F)(F)C2)c(C#N)c1-c1ccc(OC(F)(F)CO)cc1 [Compound 256]	> 10000	> 10000
N#Cc1c(SCCO)nc(N2CCCC2)c(C#N)c1-c1ccc(OCCO)cc1 [Compound 95]	459	276
N#Cc1c(N)nc(SCc2cccnc2)c(C#N)c1-c1ccc(O[C@@H]2CCOC2)cc1 [Compound 236]	49.3	164
COCCOc1ccc(-c2c(C#N)c(SCc3cccnc3)nc(N3CCCC3)c2C#N)cc1 [Compound 107]	> 10000	97
N#Cc1c(N)nc(SC[C@@H]2CCOC2)c(C#N)c1-c1ccc(OC2COC2)cc1 [Compound 228]	7550	1460
N#Cc1c(SCCC(F)(F)F)nc(N2CCCC2)c(C#N)c1-c1ccc(OCCO)cc1 [Compound 104]	> 10000	1790
N#Cc1c(SCc2cccnn2)nc(C2CC2)c(C#N)c1-c1ccc(OCCOC2COC2)cc1 [Compound 242]	749	905
N#Cc1c(N)nc(SCc2cccnc2)c(C#N)c1-c1ccc(OC2COC2)cc1 [Compound 66]	0.2	2.5
COCCOc1ccc(-c2c(C#N)c(N)nc(SCc3cccnn3)c2C#N)cc1 [Compound 195]	> 10000	9.7
N#Cc1c(N)nc(SCc2ncccn2)c(C#N)c1-c1ccc(OCCO)cc1 [Compound 176]	7.1	34
COCCOc1ccc(-c2c(C#N)cnc(SCc3cccnc3)c2C#N)cc1 [Compound 83, 4-[4-(2-Methoxyethoxy)phenyl]-2-(3-pyridylmethylthio)-pyridine-3,5-dicarbonitrile]	> 10000	282
N#Cc1c(N)nc(SCCC(F)(F)F)c(C#N)c1-c1ccc(OCCO)cc1 [Compound 113]	≥ 10000	316
COCCOc1ccc(-c2c(C#N)c(N)nc(SCC(N)=O)c2C#N)cc1 [Compound 136]	87	768
N#Cc1c(N)nc(SCc2cccnc2)c(C#N)c1-c1ccc(O[C@H]2CCOC2)cc1 [Compound 240]	0.335	0.903
CN(C)CCSc1nc(N)c(C#N)c(-c2ccc(OCCO)cc2)c1C#N [Compound 132]	645	> 10000

Now from value to compound:

EC50 (human A2B) [nM]	EC50 [1] [nM]	Compound
0.962	6.48	N#Cc1c(N)nc(SCc2cccnc2)c(C#N)c1-c1ccc(OC(F)(F)CO)cc1 [Compound 309]
> 10000	93	N#Cc1c(SCC2COC2)nc(N2CCCC2)c(C#N)c1-c1ccc(OC2COC2)cc1 [Compound 292]
> 10000	1150	N#Cc1c(N)nc(OCC2CCCOC2)c(C#N)c1-c1ccc(OC2COC2)cc1 (stereo not drawn) [Compound 300, 2-Amino-4-(4-(oxetan-3-yloxy)phenyl)-6-((tetrahydro-2H-pyran-3-yl)methoxy)pyridine-3,5-dicarbonitrile]
> 10000	7.18	N#Cc1c(N)nc(SCC2COC2)c(C#N)c1-c1ccc(OC(F)(F)CO)cc1 [Compound 311, 2-Amino-4-[4-(1,1-difluoro-2-hydroxy-ethoxy)phenyl]-6-(oxetan-3-ylmethylsulfanyl)pyridine-3,5-dicarbonitrile]
> 10000	> 10000	N#Cc1c(N)nc(SCCC(F)(F)F)c(C#N)c1-c1ccc(OC2CCCOC2)cc1 (stereo not drawn) [Compound 325]
20	61.5	COc1nc(SCc2cccnc2)c(C#N)c(-c2ccc(OCCO)cc2)c1C#N [Compound 282]
> 10000	353	COCC(F)(F)Oc1ccc(-c2c(C#N)c(N)nc(SCc3cccnc3)c2C#N)cc1 [Compound 306]
> 10000	> 10000	N#Cc1c(SCc2cccnc2)nc(N2CC(O)C2)c(C#N)c1-c1ccc(OC(F)(F)CO)cc1 [Compound 261]
> 10000	228	N#Cc1c(N)nc(SCC2COCCO2)c(C#N)c1-c1ccc(OC2COC2)cc1 (stereo not drawn) [Compound 301]
> 10000	> 10000	CNc1nc(SCc2cccnc2)c(C#N)c(-c2ccc(OCCOC(F)F)cc2)c1C#N [Compound 258]
> 10000	> 10000	N#Cc1c(N)nc(SCC2COC2)c(C#N)c1-c1ccc(OC(F)(F)COC(F)F)cc1 [Compound 289, 2-Amino-4-(4-(2-(difluoromethoxy)-1,1-difluoroethoxy)phenyl)-6-((oxetan-3-ylmethyl)thio)pyridine-3,5-dicarbonitrile]
> 10000	> 10000	N#Cc1c(SCc2cccnc2)nc(N2CC(F)(F)C2)c(C#N)c1-c1ccc(OCCOC(F)F)cc1 [Compound 264]
> 10000	230	N#Cc1c(N)nc(SCC2(F)COC2)c(C#N)c1-c1ccc(OCCO)cc1 [Compound 320]
> 10000	227	COC1CC(Oc2ccc(-c3c(C#N)c(N)nc(SCC4COC4)c3C#N)cc2)C1 (stereo not drawn) [Compound 323]
> 10000	295	N#Cc1c(SCC2COC2)nc(N2CC(F)(F)C2)c(C#N)c1-c1ccc(OCCO)cc1 [Compound 273]
> 10000	75.2	N#Cc1c(SCC2COC2)nc(N2CC(O)C2)c(C#N)c1-c1ccc(OCCO)cc1 [Compound 274]
> 10000	55	N#Cc1c(N)nc(SCC2(O)COC2)c(C#N)c1-c1ccc(OCCO)cc1 [Compound 313]
> 10000	21.3	N#Cc1c(N)nc(SCC2CCOC2)c(C#N)c1-c1ccc(OC2CC(O)C2)cc1 (stereo not drawn) [Compound 324]
